ChEMBL document CHEMBL3272039, “Potenial antitumor agents. 28. Deoxyribonucleic acid polyintercalating agents” (J Med Chem, 1978)

Experiments:
P388 = experiment: Antitumor activity against mouse P388 cells allografted in ip dosed BDF1 mouse at optimum dose administered qd for 5 days relative to control; assay type: functional
[1] = Lipophilic-hydrophilic balance, Rm of the compound by reversed-phase chromatographic analysis; assay type: physicochemical
[2] = (§1) Toxicity in ip dosed BDF1 mouse allografted with mouse P388 cells administered qd for 5 days; assay type: organism-based; settings: BDF1, mouse, in vivo
Bos taurus = species on record: Bos taurus; experiment: Displacement of ethidium bromide from calf thymus DNA by spectrofluorometric analysis
Pseudoalteromonas = experiment: Induction of bacteriophage PM2 closed circular DNA unwinding assessed as drug per nucleic acid phosphate ratio at equivalence by viscometric analysis
Mus musculus [3] = experiment: as §1; assay type: organism-based; settings: mouse, in vivo, 120 h
L1210 = experiment: Antitumor activity against mouse L1210 cells allografted in ip dosed BDF1 mouse at optimum dose administered qd for 5 days relative to control; assay type: functional
Mus musculus [4] = experiment: Toxicity in ip dosed BDF1 mouse allografted with mouse L1210 cells administered qd for 5 days; assay type: organism-based; settings: mouse, in vivo, 120 h

Row | Structure (SMILES) | ILS (P388) [%] | Rm [1] | MTD at 120 h [2] [mg/kg/day] | C50 (Bos taurus) [µM] | Ratio (Pseudoalteromonas) | Activity (Mus musculus [3]) [mg/kg/day] | ILS (L1210) [%] | Activity (Mus musculus [4]) [mg/kg/day]
1 | Cl.c1ccc(OCCCCCCCCCCOc2ccccc2Nc2c3ccccc3nc3ccccc23)c(Nc2c3ccccc3nc3ccccc23)c1 | >25 | 0.92 | > 500 | 8 |  |  |  | 
2 | Cl.c1ccc(OCCCCCCCCOc2ccccc2Nc2c3ccccc3nc3ccccc23)c(Nc2c3ccccc3nc3ccccc23)c1 | >25 | 0.82 | > 500 | 9 |  |  |  | 
3 | Cl.O.O=S(=O)(CCCCNc1c2ccccc2nc2ccccc12)Nc1ccc(Nc2c3ccccc3nc3ccccc23)cc1 | >25 | -0.1 | 37 | 0.09 | 0.066 |  |  | 
4 | Br.O=S(=O)(CCCNc1ccnc2ccccc12)Nc1ccc(Nc2c3ccccc3nc3ccccc23)cc1 | >25 | -0.45 | 375 | 0.12 |  |  |  | 
5 | CS(=O)(=O)Nc1ccc(Nc2c3ccccc3nc3c(C(N)=O)cccc23)c(OCCCCOc2cc(NS(C)(=O)=O)ccc2Nc2c3ccccc3nc3c(C(N)=O)cccc23)c1.Cl.O | >25 | -0.87 | 275 | 0.72 |  |  |  | 
6 | Cl.c1ccc(OCCCCCCCCNc2ccnc3ccccc23)c(Nc2c3ccccc3nc3ccccc23)c1 | >25 | 0.59 | 31 | 0.6 |  |  |  | 
7 | Cl.O.c1ccc(OCCCCCCCNc2ccnc3ccccc23)c(Nc2c3ccccc3nc3ccccc23)c1 | >25 | 0.52 | 25 | 0.71 |  |  |  | 
8 | Cl.O.O=S(=O)(CCNc1ncnc2ccccc12)Nc1ccc(Nc2c3ccccc3nc3ccccc23)cc1 | 100 | -0.53 |  | 0.67 |  | 100 | 57 | 50
9 | Cl.O.c1ccc(OCCCCNc2ccnc3ccccc23)c(Nc2c3ccccc3nc3ccccc23)c1 | >25 | -0.07 | 20 | 2.6 |  |  |  | 
10 | c1ccc2c(NCCNc3c4ccccc4nc4ccccc34)c3ccccc3nc2c1 | >25 | -0.44 | 5 | 0.7 |  |  |  | 
11 | COc1cc(NS(=O)(=O)CCCCCS(=O)(=O)Nc2ccc(Nc3c4ccccc4nc4ccccc34)c(OC)c2)ccc1Nc1c2ccccc2nc2ccccc12.CS(=O)(=O)O.O | 71 | 0.35 |  | 0.14 |  | 400 | 36 | 400
12 | CCOc1cc(NS(C)(=O)=O)ccc1Nc1c2ccccc2nc2ccccc12 | 218 | 0.37 |  | 19 |  | 60 | 71 | 60
13 | c1ccc2c(NCCCCCCCCCCNc3c4ccccc4nc4ccccc34)c3ccccc3nc2c1 | 33 | 0.65 |  | 0.09 |  | 2.5 |  | 
14 | Cl.c1ccc(OCCCCCCCCCOc2ccccc2Nc2c3ccccc3nc3ccccc23)c(Nc2c3ccccc3nc3ccccc23)c1 | >25 | 0.85 | > 500 | 3.3 |  |  |  | 
15 | COc1cc(NS(=O)(=O)CCCCS(=O)(=O)Nc2ccc(Nc3ccnc4ccccc34)c(OC)c2)ccc1Nc1ccnc2ccccc12.Cl.O | >25 | -0.28 | 12 | 7.5 | 0.15 |  |  | 
16 | CCN(CC)CCCC(C)Nc1c2ccc(Cl)cc2nc2ccc(OC)cc12.CS(C)(=O)=O (stereo not given) | >25 |  | 90 | 0.51 |  |  |  | 
17 | c1ccc2c(NCCCCNc3c4ccccc4nc4ccccc34)c3ccccc3nc2c1 | >25 | -0.26 | 10 | 0.3 |  |  |  | 
18 | Cl.c1ccc(OCCCCOc2ccccc2Nc2ccnc3ccccc23)c(Nc2ccnc3ccccc23)c1 | >25 | -0.1 | 25 | 9.2 |  |  |  | 
19 | Cl.O.O=S(=O)(CCCCCS(=O)(=O)Nc1ccc(Nc2c3ccccc3nc3ccccc23)cc1)Nc1ccc(Nc2c3ccccc3nc3ccccc23)cc1 | 49 | -0.02 |  | 0.07 |  | 210 | 28 | 210
20 | Cl.O.c1ccc(OCCCCCNc2ccnc3ccccc23)c(Nc2c3ccccc3nc3ccccc23)c1 | >25 | 0.23 | 17 | 1.9 |  |  |  | 
21 | COc1cc(NS(=O)(=O)CCCCCCS(=O)(=O)Nc2ccc(Nc3c4ccccc4nc4ccccc34)c(OC)c2)ccc1Nc1c2ccccc2nc2ccccc12.Cl.O | >25 | 0.42 | 270 | 0.15 |  |  |  | 
22 | c1ccc2c(NCCCCCCCCCCCCCCCCNc3c4ccccc4nc4ccccc34)c3ccccc3nc2c1 | >25 | 0.88 |  | 0.23 |  |  |  | 
23 | Cl.c1ccc(OCCCCOc2ccccc2Nc2c3ccccc3nc3ccccc23)c(Nc2c3ccccc3nc3ccccc23)c1 | >25 | 0.53 | > 500 | 0.8 |  |  |  | 

Row | Structure (SMILES) | ILS (P388) [%] | Rm [1] | MTD at 120 h [2] [mg/kg/day] | C50 (Bos taurus) [µM] | Ratio (Pseudoalteromonas) | Activity (Mus musculus [3]) [mg/kg/day] | ILS (L1210) [%] | Activity (Mus musculus [4]) [mg/kg/day]
24 | Cl.O=S(=O)(CCCCCCNc1c2ccccc2nc2ccccc12)Nc1ccc(Nc2c3ccccc3nc3ccccc23)cc1 | >25 | 0.08 | 150 | 0.21 |  |  |  | 
25 | c1ccc2c(NCCCCCCCNc3c4ccccc4nc4ccccc34)c3ccccc3nc2c1 | 67 | 0.27 |  | 0.1 |  | 5 |  | 
26 | Cl.O.c1ccc(OCCOc2ccccc2Nc2c3ccccc3nc3ccccc23)c(Nc2c3ccccc3nc3ccccc23)c1 | >25 | 0.17 | 125 | 0.4 |  |  |  | 
27 | CCN(CC)CCCC(C)Nc1ccnc2cc(Cl)ccc12.Cl (stereo not given) | >25 |  | 40 | 11 |  |  |  | 
28 | Cl.c1ccc(OCCCOc2ccccc2Nc2c3ccccc3nc3ccccc23)c(Nc2c3ccccc3nc3ccccc23)c1 | >25 | 0.28 | 50 | 0.6 | 0.072 |  |  | 
29 | Cl.c1ccc(OCCCCCCOc2ccccc2Nc2c3ccccc3nc3ccccc23)c(Nc2c3ccccc3nc3ccccc23)c1 | >25 | 0.71 | > 500 | 2.1 |  |  |  | 
30 | CS(=O)(=O)Nc1ccc(Nc2c3ccccc3nc3ccccc23)cc1 | 223 | 0 |  | 5.9 |  | 45 | 107 | 45
31 | Cl.c1ccc(OCCCCCCCOc2ccccc2Nc2c3ccccc3nc3ccccc23)c(Nc2c3ccccc3nc3ccccc23)c1 | >25 | 0.75 | > 500 | 3.8 |  |  |  | 
32 | c1ccc2c(NCCCCCCCCCCCCNc3c4ccccc4nc4ccccc34)c3ccccc3nc2c1 | >25 | 0.79 | 5 | 0.11 |  |  |  | 
33 | COc1cc(NS(=O)(=O)CCCCS(=O)(=O)Nc2ccc(Nc3c4ccccc4nc4c(C(N)=O)cccc34)c(OC)c2)ccc1Nc1c2ccccc2nc2c(C(N)=O)cccc12.Cl.O | >25 | -0.64 | 11 | 0.068 |  |  |  | 
34 | Cl.O.c1ccc(OCCCCCCNc2ccnc3ccccc23)c(Nc2c3ccccc3nc3ccccc23)c1 | >25 | 0.42 | 15 | 0.99 |  |  |  | 
35 | COc1cc(NS(=O)(=O)CCCS(=O)(=O)Nc2ccc(Nc3c4ccccc4nc4ccccc34)c(OC)c2)ccc1Nc1c2ccccc2nc2ccccc12.CS(=O)(=O)O.O |  | 0.22 |  |  |  | 50 |  | 50
36 | O.c1ccc(OCCCNc2ccnc3ccccc23)c(Nc2c3ccccc3nc3ccccc23)c1 | >25 | -0.19 | 50 | 2.7 |  |  |  | 
37 | c1ccc2c(NCCCCCCCCNc3c4ccccc4nc4ccccc34)c3ccccc3nc2c1 | 55 | 0.44 |  | 0.11 |  | 2.5 |  | 
38 | Cl.O.O=S(=O)(CCCCCNc1c2ccccc2nc2ccccc12)Nc1ccc(Nc2c3ccccc3nc3ccccc23)cc1 | 63 | -0.04 |  | 0.17 |  | 250 | 35 | 250
39 | Cl.c1ccc(OCCCCCOc2ccccc2Nc2c3ccccc3nc3ccccc23)c(Nc2c3ccccc3nc3ccccc23)c1 | >25 | 0.6 | > 500 | 1.4 |  |  |  | 
40 | c1ccc2c(NCCCCCNc3c4ccccc4nc4ccccc34)c3ccccc3nc2c1 | 36 | -0.06 |  | 0.21 |  | 7.5 |  | 
41 | CS(=O)(=O)Nc1ccc(Nc2c3ccccc3nc3ccccc23)c(OCCCCOc2cc(NS(C)(=O)=O)ccc2Nc2c3ccccc3nc3ccccc23)c1.Cl | >25 | 0.01 | > 500 | 0.22 |  |  |  | 
42 | Cl.Nc1c2ccccc2nc2ccccc12 [AMINACRINE HYDROCHLORIDE] | >25 | -0.08 | 12.5 | 8.1 |  |  |  | 
43 | Cl.O=S(=O)(CCCCS(=O)(=O)Nc1ccc(Nc2c3ccccc3nc3ccccc23)cc1)Nc1ccc(Nc2c3ccccc3nc3ccccc23)cc1 | >25 | -0.11 | > 500 | 0.053 |  |  |  | 
44 | c1ccc2c(NCCCCCCCCCCCCCCNc3c4ccccc4nc4ccccc34)c3ccccc3nc2c1 | >25 | 0.82 |  | 0.14 |  |  |  | 
45 | c1ccc2c(NCCCCCCNc3c4ccccc4nc4ccccc34)c3ccccc3nc2c1 | 53 | 0.13 |  | 0.15 |  | 2.5 |  | 
